Columns and labels:
[1] = Mouse liver microsomal stability; format: in vitro ADME
Method in brief: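 Test compound at 0.5 μM incubated with 0.25 mg/mL human (200-donor pool) or CD1 mouse liver microsomes, pH 7.4, 37°C, started with […]; sampled 0–30 min. LC-MS/MS quantitation against internal standard; t1/2 and Clint (μL/min/mg) from non-linear regression of % remaining versus time.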

Alpha2A [2] = target: T1, Alpha2A (Homo sapiens, UniProt P08913); experiment: Bioprofiling 6pt Ag Alpha2A CHO; format: cell-based; conditions: agonist readout
T1 construct: expressed in transfected cells; host or cells: CHO
T1 sequence (P08913 1-465): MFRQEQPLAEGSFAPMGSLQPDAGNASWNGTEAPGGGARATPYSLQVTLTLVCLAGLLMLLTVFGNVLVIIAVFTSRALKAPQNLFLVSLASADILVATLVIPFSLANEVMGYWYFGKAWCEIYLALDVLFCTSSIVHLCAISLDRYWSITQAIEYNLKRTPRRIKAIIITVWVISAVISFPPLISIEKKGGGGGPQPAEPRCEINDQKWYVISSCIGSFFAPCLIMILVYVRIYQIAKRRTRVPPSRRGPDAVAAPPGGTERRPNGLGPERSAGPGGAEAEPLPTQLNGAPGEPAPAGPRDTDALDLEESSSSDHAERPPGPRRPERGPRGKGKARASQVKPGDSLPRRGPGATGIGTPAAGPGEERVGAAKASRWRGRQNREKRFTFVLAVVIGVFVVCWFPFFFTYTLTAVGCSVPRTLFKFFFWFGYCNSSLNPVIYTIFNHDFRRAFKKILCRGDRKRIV
Procedure: (§1) The compounds were evaluated across a panel of 20 liability targets (37 functional assays) which included functional cell-based GPCRs and ion channels in both agonist and antagonist readout, measuring calcium flux and biochemical functional assays for nuclear hormone receptors and phosphodiesterases using TR-FRET format, in a 6 point 1:3 dilution dose series (maximum final concentration of 10 μM).

M2 = target: T2, M2 (Homo sapiens, UniProt P08172); experiment: Bioprofiling 6pt Ag M2 CHO; format: cell-based; conditions: agonist readout
T2 construct: expressed in transfected cells; host or cells: CHO
T2 sequence (P08172 1-466): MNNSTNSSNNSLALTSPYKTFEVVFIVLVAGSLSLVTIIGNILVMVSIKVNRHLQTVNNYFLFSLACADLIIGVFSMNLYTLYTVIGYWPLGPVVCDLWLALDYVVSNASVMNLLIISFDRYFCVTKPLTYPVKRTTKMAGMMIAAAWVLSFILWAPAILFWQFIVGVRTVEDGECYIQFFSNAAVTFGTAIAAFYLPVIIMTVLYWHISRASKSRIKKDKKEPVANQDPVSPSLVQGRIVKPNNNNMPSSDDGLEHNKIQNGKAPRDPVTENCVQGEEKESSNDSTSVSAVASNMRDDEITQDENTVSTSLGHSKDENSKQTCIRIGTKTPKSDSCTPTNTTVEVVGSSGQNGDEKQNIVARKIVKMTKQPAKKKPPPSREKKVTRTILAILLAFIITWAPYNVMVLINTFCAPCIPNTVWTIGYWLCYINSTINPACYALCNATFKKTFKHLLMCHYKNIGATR
Procedure: as §1

Alpha1A = target: T3, Alpha1A (Homo sapiens, UniProt P35348); experiment: Bioprofiling 6pt Antag Alpha1A CHO; format: cell-based; conditions: antagonist readout vs A-61603
T3 construct: expressed in transfected cells; host or cells: CHO
T3 sequence (P35348 1-466): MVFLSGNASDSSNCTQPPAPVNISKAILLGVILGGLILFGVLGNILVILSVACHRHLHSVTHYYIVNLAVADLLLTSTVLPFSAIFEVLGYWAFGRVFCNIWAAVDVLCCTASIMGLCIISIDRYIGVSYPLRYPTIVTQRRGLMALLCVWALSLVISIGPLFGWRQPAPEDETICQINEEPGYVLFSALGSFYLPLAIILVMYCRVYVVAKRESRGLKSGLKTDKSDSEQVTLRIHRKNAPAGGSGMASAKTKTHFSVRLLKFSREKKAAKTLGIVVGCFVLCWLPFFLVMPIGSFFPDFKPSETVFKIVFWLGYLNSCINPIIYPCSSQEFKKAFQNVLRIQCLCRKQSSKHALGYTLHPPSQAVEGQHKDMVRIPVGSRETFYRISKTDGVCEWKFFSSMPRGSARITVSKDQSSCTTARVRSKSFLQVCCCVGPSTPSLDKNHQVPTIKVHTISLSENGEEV
Procedure: as §1

Alpha2A [3] = target: T1, Alpha2A; experiment: Bioprofiling 6pt Antag Alpha2A CHO; format: cell-based; conditions: antagonist readout vs UK-14304
Procedure: as §1

Beta1 = target: T4, Beta1 (Homo sapiens, UniProt P08588); experiment: Bioprofiling 6pt Antag Beta1 CHO; format: cell-based; conditions: antagonist readout vs Norepinephrine
T4 construct: expressed in transfected cells; host or cells: CHO
Procedure: as §1

CB1 = target: T5, CB1 (Homo sapiens, UniProt P21554); experiment: Bioprofiling 6pt Antag CB1 CHO; format: cell-based; conditions: antagonist readout vs WIN 55,212-2
T5 construct: expressed in transfected cells; host or cells: CHO
Procedure: as §1

ETA = target: T6, ETA (Homo sapiens, UniProt P25101); experiment: Bioprofiling 6pt Antag ETA CHO; format: cell-based; conditions: antagonist readout vs Endothelin-1 (ET-1)
T6 construct: expressed in transfected cells; host or cells: CHO
T6 sequence (P25101 21-427): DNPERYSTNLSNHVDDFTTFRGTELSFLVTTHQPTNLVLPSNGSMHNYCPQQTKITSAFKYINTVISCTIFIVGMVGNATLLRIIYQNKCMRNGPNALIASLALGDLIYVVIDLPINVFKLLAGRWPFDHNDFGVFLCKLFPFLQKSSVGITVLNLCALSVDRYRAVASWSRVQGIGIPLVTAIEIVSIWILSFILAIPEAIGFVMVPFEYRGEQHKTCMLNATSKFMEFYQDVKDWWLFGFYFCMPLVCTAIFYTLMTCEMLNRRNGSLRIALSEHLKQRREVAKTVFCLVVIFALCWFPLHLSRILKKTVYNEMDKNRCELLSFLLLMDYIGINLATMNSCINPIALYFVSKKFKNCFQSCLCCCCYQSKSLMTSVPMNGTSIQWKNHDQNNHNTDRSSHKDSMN
Procedure: as §1

[4] = mouse liver microsome intrinsic clearance

T4 sequence (P08588 whole entry): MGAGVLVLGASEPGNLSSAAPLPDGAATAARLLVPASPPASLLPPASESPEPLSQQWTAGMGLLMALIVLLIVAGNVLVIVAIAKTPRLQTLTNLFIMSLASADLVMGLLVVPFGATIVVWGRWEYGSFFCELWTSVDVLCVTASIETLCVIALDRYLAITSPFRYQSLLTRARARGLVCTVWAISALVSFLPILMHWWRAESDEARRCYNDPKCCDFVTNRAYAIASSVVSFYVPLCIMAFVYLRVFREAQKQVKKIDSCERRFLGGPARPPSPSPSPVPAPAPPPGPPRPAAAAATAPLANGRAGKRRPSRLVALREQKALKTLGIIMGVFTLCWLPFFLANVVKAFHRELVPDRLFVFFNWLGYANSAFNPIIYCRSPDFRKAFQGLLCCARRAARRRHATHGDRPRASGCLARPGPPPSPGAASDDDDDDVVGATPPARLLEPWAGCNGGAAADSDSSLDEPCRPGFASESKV
T5 sequence (P21554 whole entry): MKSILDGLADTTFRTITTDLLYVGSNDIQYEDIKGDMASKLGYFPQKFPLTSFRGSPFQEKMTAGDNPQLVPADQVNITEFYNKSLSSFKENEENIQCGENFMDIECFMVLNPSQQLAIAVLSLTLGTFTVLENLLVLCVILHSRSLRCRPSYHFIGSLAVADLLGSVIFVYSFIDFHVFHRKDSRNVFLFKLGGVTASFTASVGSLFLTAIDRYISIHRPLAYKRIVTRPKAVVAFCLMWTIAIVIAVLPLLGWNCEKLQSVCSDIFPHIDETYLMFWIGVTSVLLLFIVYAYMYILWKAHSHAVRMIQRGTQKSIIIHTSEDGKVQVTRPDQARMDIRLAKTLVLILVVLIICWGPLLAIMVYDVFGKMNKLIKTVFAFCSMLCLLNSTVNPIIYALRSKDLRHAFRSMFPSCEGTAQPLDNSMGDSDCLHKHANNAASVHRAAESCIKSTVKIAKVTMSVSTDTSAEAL

## Cn1nccc1C(=O)Nc1nc2ccc(C#N)cc2n1CC(C)(C)C [Compound 29, O=C(Nc1n(CC(C)(C)C)c(c2n1)cc(C#N)cc2)c3n(C)ncc3]
[1]; CD1, mouse, liver microsomes, pH 7.4, mouse liver microsome intrinsic clearance, read-out: MLM Clint
  microsomal CLint at 0.5 μM: 17 µL/min/mg
Alpha2A [2]
  EC50: > 10 µM
M2
  EC50: > 10 µM
Alpha1A
  IC50: > 10 µM
Alpha2A [3]
  IC50: > 10 µM
Beta1
  IC50: > 10 µM
CB1
  IC50: > 10 µM
ETA
  IC50: > 10 µM

## Cn1nccc1C(=O)Nc1nc2ccc(C#N)cc2n1CC(F)(F)F [Compound 30, O=C(c1ccnn1C)Nc2nc(ccc(C#N)c3)c3n2CC(F)(F)F]
[1]; [4]
  MLM CLint: 20 µL/min/mg
Alpha2A [2]
  EC50: > 10 µM
M2
  EC50: > 10 µM
Alpha1A
  IC50: > 10 µM
Alpha2A [3]
  IC50: > 10 µM
Beta1
  IC50: > 10 µM
CB1
  IC50: > 10 µM
ETA
  IC50: > 10 µM

## Cn1nc(C(F)(F)F)cc1C(=O)Nc1nc2ccc(C#N)cc2n1CC(F)(F)F [Compound 39, O=C(c1cc(C(F)(F)F)nn1C)Nc2nc(ccc(C#N)c3)c3n2CC(F)(F)F]
[1]; [4]
  MLM CLint: 28 µL/min/mg
Alpha2A [2]
  EC50: > 10 µM
M2
  EC50: > 10 µM
Alpha1A
  IC50: > 10 µM
Alpha2A [3]
  IC50: > 10 µM
Beta1
  IC50: > 10 µM
CB1
  IC50: > 10 µM
ETA
  IC50: > 10 µM

## COc1ccc(C(=O)Nc2nc3ccc(C#N)cc3n2CC(F)(F)F)cn1 [Compound 43, O=C(c1ccc(OC)nc1)Nc2nc(ccc(C#N)c3)c3n2CC(F)(F)F]
[1]; S1 Data
  MLM CLint: 170 µL/min/mg
Alpha2A [2]
  EC50: > 10 µM
M2
  EC50: > 10 µM
Alpha1A
  IC50: > 10 µM
Alpha2A [3]
  IC50: > 10 µM
Beta1
  IC50: > 10 µM
CB1
  IC50: > 10 µM
ETA
  IC50: > 10 µM

## N#Cc1ccc2nc(NC(=O)c3ccnc(C(F)(F)F)c3)n(CC(F)(F)F)c2c1 [Compound 44, O=C(c1ccnc(C(F)(F)F)c1)Nc2nc(ccc(C#N)c3)c3n2CC(F)(F)F]
[1]; [4]
  MLM CLint: 27 µL/min/mg
Alpha2A [2]
  EC50: > 10 µM
M2
  EC50: > 10 µM
Alpha1A
  IC50: > 10 µM
Alpha2A [3]
  IC50: > 10 µM
Beta1
  IC50: > 10 µM
CB1
  IC50: > 10 µM
ETA
  IC50: > 10 µM

## N#Cc1ccc2nc(NC(=O)c3ccc(C(F)(F)F)nc3)n(CC(F)(F)F)c2c1 [Compound 45, O=C(c1ccc(C(F)(F)F)nc1)Nc2nc(ccc(C#N)c3)c3n2CC(F)(F)F]
[1]; S1 Data
  MLM CLint: 18 µL/min/mg
Alpha2A [2]
  EC50: > 10 µM
M2
  EC50: > 10 µM
Alpha1A
  IC50: > 10 µM
Alpha2A [3]
  IC50: > 10 µM
Beta1
  IC50: > 10 µM
CB1
  IC50: > 10 µM
ETA
  IC50: > 10 µM
